Results: patent US10555910B2, “Oligonucleotide lipid nanoparticle compositions, methods of making and methods of using the same” (Ohio State Innovation Foundation, priority 2014, dated 2020)

What was measured:
A549 xenograft = experiment: Combination therapy (QT/AM-21 and PTX) in A549 xenograft; type: in vivo, mice; details: 1 mg/kg QT/AM-21 tail vein and/or 3 mg/kg PTX i.p., start ~80 mm^3, 4 weeks
Procedure: Mice were treated by tail vein injection with saline control or 1 mg/kg QT/AM-21. Mice receiving PTX treatment as monotherapy or combination therapy received PTX dissolved in 1:1 Cremephor EL:ethanol solution at a dose of 3 mg/kg via intraperitoneal injection. Mice were dosed on days 1, 3, 5, 8, 15, 22, 29 and were monitored over a 4 week period. 48 h following the last dose, mice were euthanized and tumors were collected for gene regulation study.

A549 cells [1] = type: cell-based, human; set-up: decrease of cell viability: dose or concentration left out as unconfirmed
Procedure: Cells were grown in 96-well plates at a density of 2.0 ×10^4 cells/well. Cells were treated with controls or QT/AM-21 at 50, 100, or 200 nM, with and without PTX (4.1 nM) dissolved in a small volume of 1:1 Cremophor EL:ethanol solution. Relative cell viability was quantified by CellTiter 96® AQueous One Solution Cell Proliferation Assay (Promega, Madison, Wis., USA) according to the manufacturer's protocol 72 h following the start of treatment. Briefly, 20 μL MTS assay solution was added to each well and the plates were incubated for 1 h. The absorbance at 490 nm was recorded to determine cytotoxicity relative to the untreated control.
A549 cells were cultured as in Example 2, and treated with either QT/AM-21 (5′-U*C*A*ACAUCAGUCUGAUAAG*C*U*A-3′, SEQ ID NO:3) at three different concentrations (50 nM, 100 nM or 200 nM), paclitaxel (PTX) or a combination of PTX and QT/AM-21 (PTX/50 nM QT/AM-21; PTX/QT/100 nM-21; TX/200 nM QT/AM-21). (Dosage of PXT was 4nM).
The cells were incubated with the drugs for 72 h; after which the cells were harvested and tested for cytotoxicity and viability using MTS assay kit by Promega. Absorbance scanning was done at 490 nm to determine relative cell viabilities.

miR-21 [2] = experiment: In vivo gene regulation in A549 xenograft tumors (qRT-PCR); set-up: species or system mice; details: 1 mg/kg QT/AM-21 and/or 3 mg/kg PTX
Procedure: Female athymic nude mice (n=5 per group) were implanted with 1.0×10^6 A549 cells/mouse and treatment began when tumors reached a size of ≥100 mm^3. Mice were treated by tail vein injection with saline control or 1 mg/kg QT/AM-21. Mice receiving PTX treatment as monotherapy or combination therapy received PTX dissolved in 1:1 Cremephor EL:ethanol solution at a dose of 3 mg/kg via intraperitoneal injection. Mice were dosed on days 1, 3, 5, 8, 15, 22, 29 and were monitored over a 4 week period. 48 h following the last dose, mice were euthanized and tumors were collected for gene regulation study.
Tumors were harvested and placed in TRIzol reagent (Life Technologies) following treatment and homogenized. mRNA was isolated per the manufacturer's protocol. qRT-PCR was then completed according to the same procedure as outlined in the in vitro section.

miR-21 [3] = experiment: In vitro gene regulation in A549 cells (qRT-PCR of miR-21 and its target genes); type: cell-based, human; details: 100 nM AM-21, mRNA relative to GAPDH
Procedure: Cells were grown in 24-well plates at a density of 7.0×10^5 cells/well 24 h prior to transfection. QT/AM-21 of varying lipid composition or QT/negative control (NC) were administered at 50 nM in the presence of 20% serum containing media to determine the optimal QT composition. […] Cells were incubated at 37° C. with transfection media for 4 h and then washed three times with PBS. Fresh complete cell culture media was added and the cells were incubated at 37° C. for an additional 44 h. RNA was isolated from cells by RNeasy 96 kit (Qiagen, Valencia, Calif., USA). qRT-PCR was conducted with Taqman® MicroRNA Assay (Life Technologies) or EXPRESS One-Step Superscript® qRT-PCR kit (Life Technologies) on an Applied Biosystems StepOnePlus™ RT-PCR system (Life Technologies). The relative amount of […] was calculated and compared according to the 2^−ΔΔCt method.
Lung cancer A549 cells (human lung adenocarcinoma epithelial cell line) were cultured in vitro as standard cell culture. Cells were cultured in RPMI 1640 media supplemented with 10% FBS and 1% antibiotics/antimycotics in a 5% CO2 atmosphere at 37° C. […]
RNA was extracted by TRIzol reagent per manufacturer's protocol. cDNA was generated by Maxima First Strand cDNA synthesis kit per manufacture's protocol. […] RECK and PTEN mRNA levels were measured relative to GAPDH.

A549 cells [4] = experiment: Migration assay (scratch wound healing); type: cell-based, human; details: A549, QT lipids or AM-21 (200 nM) alone, 48 h
Procedure: A wound healing model was conducted to examine the migratory ability of A549 cells following treatment. A549 cells were plated at a density of 6.0×10^5 cells/well in a 33 mm petri dish 24 h prior to transfection. A scratch wound across the dish was made using a 10 μL pipet tip immediately before treatment. Culture media was removed and replaced with transfection media containing QT/AM-21 or appropriate controls diluted in complete media. Cells were allowed to proliferate at 37° C. for 48 h. Distances between edges of the wound were measured on a Nikon E800 microscope (Nikon, Tokyo, Japan) and SPOT Advanced Imaging Software (v5.0, Diagnostic Instruments Inc., Sterling Heights, Mich., USA).
A549 cells were cultured following standard culture procedure and incubated with QT/AM-21 (5′-U*C*A*ACAUCAGUCUGAUAAG*C*U*A-3′, SEQ ID NO:3) at three different concentrations (50 nM, 100 nM and 200 nM), or free, unformulated AM-21 (200 nM) for 48 hours. The untreated cells and cells treated with empty “QTsome™” lipid nanoparticle formulation were used as control. The migration of tumor cells was determined.

A549 cells [5] = experiment: Matrigel invasion assay; type: cell-based, human; details: A549, QT lipids or AM-21 alone, 48 h
Procedure: Matrigel (BD Biosciences, San Jose, Calif., USA) was combined with serum-free RPMI 1640 culture media in a 1:1 ratio. 70 μL of gel was added to each well insert of a 24-well plate. The gel was allowed to set for 1 h at 37° C. A549 cells were seeded at […] in a volume of 100 μL/well on top of the gel in the insert. Transfection media containing various formulations or controls at 2×concentration in a 100 μL volume were added to the top of the well inserts. 500 μL 10% fetal bovine supplemented media was added as a chemoattractant below the transwell insert. The plate was incubated at 37° C. for 48 h. Following the incubation period, cells remaining in the top of the well inserts were removed with a cotton swab. Well inserts were rinsed with PBS and placed in 500 uL 0.25% trypsin solution for 1 h at 37° C. Detached cells were counted on a hemocytometer.
A matrigel invasion assay was also performed after 48 hour treatment, as follows: Chilled Matrigel was combined with chilled serum-free RPMI 1640 culture media in a 1:1 ratio. 70 uL of gel was added to each well insert of a 24-well plate. The gel was allowed to set for 1 hour at 37° C. A549 cells were seeded at 75,000 cells/well in a volume of 100 uL/well on top of the gel. […] Detached cells were counted on a hemocytometer.

Compound | tumor volume at end of study (A549 xenograft) | cells still alive compared to untreated control (A549 cells [1]; A549, PTX alone (4 nM), 72 h, MTS) | decrease of cell viability (A549 cells [1]; human, 72 h) | upregulation of DDAH1 and PTEN in tumors (miR-21 [2]) | DDAH1 upregulation in tumors (miR-21 [2]; 48 h after last dose) | PTEN upregulation in tumors (miR-21 [2]; 48 h after last dose) | expression of RECK compared to untreated control A549 cells (miR-21 [3]) | cell migration in the wound region (A549 cells [4]) | change of cell viability on addition to PTX (A549 cells [1]; A549, free AM-21 or QT lipids added to PTX, MTS) | cell invasion (A549 cells [5])
CC(=O)O[C@H]1C(=O)[C@@]2(C)[C@H]([C@H](OC(=O)c3ccccc3)[C@]3(O)C[C@H](OC(=O)[C@H](O)[C@@H](NC(=O)c4ccccc4)c4ccccc4)C(C)=C1C3(C)C)[C@]1(OC(C)=O)CO[C@@H]1C[C@@H]2O [PTX, Paclitaxel] | 246.4 mm^3 | ~65% | 40% | moderate upregulation | 1.7 fold | 1.5 fold | – | – | – | –
u*c*a*acaucagucugauaag*c*u*a (UCAACAUCAGUCUGAUAAGCUA; linkages s3 o15 s3 (s phosphorothioate, o phosphodiester), sugars by position and methylation of C not given here; further chemistry not fully specified) [AM-21] | – | – | – | – | – | – | upregulated | did not confer significant decreases in cell migration | did not result in significant decreases in cell viability | did not significantly retard cell invasion
